Test [1] addresses NAMPT (Homo sapiens (Human), UniProt P43490). Put plainly: Biochemical Inhibition Assay (NAMPT enzymatic reaction, NMN by mass spectrometry). As to conditions: recombinant His-tagged NAMPT 33 nM, 1 μM NAM, 30 minutes; read-out: Biochem IC50. The protocol: Biochemical Inhibition Assay NAMPT Protein Purification Recombinant His-tagged NAMPT was produced in E. coli cells, purified over a Ni column, and further purified over a size-exclusion column by XTAL Biostructures. The NAMPT Enzymatic Reaction The NAMPT enzymatic reactions were carried out in Buffer A (50 mM Hepes pH 7.5, 50 mM NaCl, 5 mM MgCl2, and 1 mM THP) in 96-well V-bottom plates. The compound titrations were performed in a separate dilution plate by serially diluting the compounds in DMSO to make a 100× stock. […] Background and signal strength was determined by addition (or non-addition) of a serial dilution of NMN to a pre-quenched enzyme and cofactor mix. Quantification of NMN A mass spectrometry-based assay was used to measure the NAMPT reaction product (NMN) and the internal control (L-Cystathionine). NMN and L-Cystathionine were detected using the services of Biocius Lifesciences with the RapidFire system. In short, the NMN and L-Cystathionine are bound to a graphitic carbon cartridge in 0.1% formic acid, eluted in 30% acetonitrile buffer, and injected into a Sciex 4000 mass spectrometer. The components of the sample were ionized with electrospray ionization and the positive ions were detected. […] The fragments are quantified and the analyzed by the following method. % Inhibitions are Determined Using this Method. First the NMN signal is normalized to the L-Cystathionine signal by dividing the NMN signal by the L-Cystathionine signal for each well. The signal from the background wells are averaged and subtracted from the test plates. […] IC50s are Determined Using Excel and this Formula.

The test system of test [2] is A2780 cells. Put plainly: In-Vitro Cell Proliferation Assay (SRB). The class given is cell-based. The protocol:
In-Vitro Cell Proliferation Assay […] After overnight incubation at 37° C. and 5% CO2, the compound titrations were performed in a separate dilution plate by serially diluting the compounds in DMSO to make a 1000× stock. The compounds were then further diluted to 10× final concentration in culture media, whereupon 20 μL of each dilution was added to the plated cells with controls (e.g. DMSO and blank) to make a final volume of 200 μL. The final DMSO concentration in each well was 0.1%. The plates were then incubated for 72 hours at 37° C. in a 5% CO2 incubator. The number of viable cells was then assessed using sulforhodamine B (SRB) assay. Cells were fixed at 4° C. for 1 hour with the addition of 50 μL 30% trichloroacetic acid (TCA) to make a final concentration of 6% TCA. The plates were washed four times with H2O and allowed to dry for at least 1 hour, whereupon 100 μL of a […] SRB in 1% acetic acid solution was added to each well and incubated at room temperature for at least 30 minutes. The plates were then washed three times with 1% acetic acid, dried, and treated with 100 μL of 10 mM Tris-Base solution. The plates were then read in a microplate reader at an absorbance of 570 nm. Background was generated on a separate plate with media only. Method for Determining % Inhibition First, the signals from the background plate are averaged, then the background was subtracted from the test plates. […] Formula for Determining IC50 Values: […] Specificity of Cytotoxicity. Inhibition of NAMPT could be reversed by the addition of NAM or NMN. The specificity of the compounds were determined via cell viability assay in the presence of the compound and either NAM or NMN. Percent inhibitions were determined using the method given above.

Molecules are shown by their SMILES.

Sequence of NAMPT (P43490 whole entry): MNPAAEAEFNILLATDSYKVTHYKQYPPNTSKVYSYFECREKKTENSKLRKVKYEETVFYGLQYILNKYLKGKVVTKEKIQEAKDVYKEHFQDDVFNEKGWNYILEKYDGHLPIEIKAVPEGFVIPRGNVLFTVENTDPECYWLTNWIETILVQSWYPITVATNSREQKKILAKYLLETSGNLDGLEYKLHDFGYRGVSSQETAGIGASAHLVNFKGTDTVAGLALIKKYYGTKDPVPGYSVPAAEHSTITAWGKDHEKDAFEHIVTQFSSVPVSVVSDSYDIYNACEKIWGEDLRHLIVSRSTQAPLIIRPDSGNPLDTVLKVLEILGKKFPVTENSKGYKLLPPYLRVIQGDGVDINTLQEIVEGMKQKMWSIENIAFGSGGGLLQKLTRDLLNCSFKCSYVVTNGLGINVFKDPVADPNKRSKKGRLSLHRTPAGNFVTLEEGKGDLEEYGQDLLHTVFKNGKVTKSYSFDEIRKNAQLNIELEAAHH

By IC50 is commonly meant the concentration needed to halve the response being measured. For the compound `N#CN=C(NCc1ccc(S(=O)(=O)c2ccnc(N3CCOCC3)c2Cl)cc1)Nc1ccncc1` [1-({4-[3-chloro-2-(morpholin-4-yl)pyridine-4-sulfonyl]phenyl}methyl)-2-cyano-3-(pyridin-4-yl)guanidine], the IC50 is 3.4 nM in test [1] and 4.1 nM in test [2] (Homo sapiens, A2780, 72 h). Take `COc1ccc(S(=O)(=O)c2ccc(CNC(=NC#N)Nc3ccncc3)cc2)cc1Cl` [1-({4-[(3-chloro-4-methoxybenzene)sulfonyl]phenyl}methyl)-2-cyano-3-(pyridin-4-yl)guanidine]: the half-maximal inhibitory concentration (IC50) was 2.6 nM in test [1] and 4.9 nM in test [2] (Homo sapiens, A2780, 72 h). `Cc1ccc(S(=O)(=O)c2ccc(CNC(=NC#N)Nc3ccncc3)cc2)cc1Cl` [1-({4-[(3-chloro-4-methylbenzene)sulfonyl]phenyl}methyl)-2-cyano-3-(pyridin-4-yl)guanidine]: the 50% inhibitory concentration (IC50) in test [1] is 1.9 nM; in test [2] (Homo sapiens, A2780, 72 h) it was 1.6 nM. With `CCCOc1ccc(S(=O)(=O)c2ccc(CNC(=NC#N)Nc3ccncc3)cc2)cc1Cl` [1-({4-[(3-chloro-4-propoxybenzene)sulfonyl]phenyl}methyl)-2-cyano-3-(pyridin-4-yl)guanidine], the IC50 in test [1] came to 4.9 nM; in test [2] (Homo sapiens, A2780, 72 h) it was 5.8 nM.

In the case of `N#CN=C(NCc1ccc(S(=O)(=O)c2cc(F)cc(Cl)c2)cc1)Nc1ccncc1` [1-({4-[(3-chloro-5-fluorobenzene)sulfonyl]phenyl}methyl)-2-cyano-3-(pyridin-4-yl)guanidine], the IC50 in test [1] stood at 5.1 nM; in test [2] (Homo sapiens, A2780, 72 h), 6.9 nM.

With `COc1cc(Cl)cc(S(=O)(=O)c2ccc(CNC(=NC#N)Nc3ccncc3)cc2)c1` [1-({4-[(3-chloro-5-methoxybenzene)sulfonyl]phenyl}methyl)-2-cyano-3-(pyridin-4-yl)guanidine], the half-inhibitory concentration (IC50) in test [1] worked out at 4.6 nM; in test [2] (Homo sapiens, A2780, 72 h), 1.6 nM. Regarding `Cc1cc(Cl)cc(S(=O)(=O)c2ccc(CNC(=NC#N)Nc3ccncc3)cc2)c1` [1-({4-[(3-chloro-5-methylbenzene)sulfonyl]phenyl}methyl)-2-cyano-3-(pyridin-4-yl)guanidine], the half-maximal inhibitory concentration (IC50) in test [1] stood at 3.3 nM; in test [2] (Homo sapiens, A2780, 72 h), 1.6 nM. The corresponding values for `CC(=O)c1ccc(S(=O)(=O)c2ccc(CNC(=NC#N)Nc3ccncc3)cc2)cc1` [1-({4-[(4-acetylbenzene)sulfonyl]phenyl}methyl)-2-cyano-3-(pyridin-4-yl)guanidine] are 5 nM and 7.3 nM.

Turning to `COc1cc(Cl)ccc1S(=O)(=O)c1ccc(CNC(=NC#N)Nc2ccncc2)cc1` [1-({4-[(4-chloro-2-methoxybenzene)sulfonyl]phenyl}methyl)-2-cyano-3-(pyridin-4-yl)guanidine], the 50% inhibitory concentration (IC50) in test [1] was 3 nM; in test [2] (Homo sapiens, A2780, 72 h), 1.9 nM. The corresponding values for `N#CN=C(NCc1ccc(S(=O)(=O)c2ccc(Cl)c(F)c2)cc1)Nc1ccncc1` [1-({4-[(4-chloro-3-fluorobenzene)sulfonyl]phenyl}methyl)-2-cyano-3-(pyridin-4-yl)guanidine] are 2 nM and 1.9 nM. Taken in the same sequence, the figures for `N#CN=C(NCc1ccc(S(=O)(=O)c2ccc(Cl)cc2)cc1)Nc1ccncc1` [1-({4-[(4-chlorobenzene)sulfonyl]phenyl}methyl)-2-cyano-3-(pyridin-4-yl)guanidine] were 3.6 nM and 3.7 nM. Taken in the same sequence, the figures for `COc1ccc(Cl)cc1S(=O)(=O)c1ccc(CNC(=NC#N)Nc2ccncc2)cc1` [1-({4-[(5-chloro-2-methoxybenzene)sulfonyl]phenyl}methyl)-2-cyano-3-(pyridin-4-yl)guanidine] were 5 nM and 6.4 nM. Regarding `N#C/N=C(/NCc1cccnc1)Nc1ccc(S(=O)(=O)c2ccccc2)cc1` [1-[4-(benzenesulfonyl)phenyl]-2-cyano-3-(pyridin-3-ylmethyl)guanidine], the IC50 in test [1] was 32 nM; in test [2] (Homo sapiens, A2780, 72 h), 2710 nM. The corresponding values for `N#CN=C(NCc1ccc(S(=O)(=O)c2cc(Cl)cc(C(F)(F)F)c2)cc1)Nc1ccncc1` [1-[(4-{[3-chloro-5-(trifluoromethyl)benzene]sulfonyl}phenyl)methyl]-2-cyano-3-(pyridin-4-yl)guanidine] are 3.3 nM and 1.6 nM. Taken in the same sequence, the figures for `N#CN=C(NCc1ccc(S(=O)(=O)c2ccc(Cl)c(C(F)(F)F)c2)cc1)Nc1ccncc1` [1-[(4-{[4-chloro-3-(trifluoromethyl)benzene]sulfonyl}phenyl)methyl]-2-cyano-3-(pyridin-4-yl)guanidine] were 1 nM and 1.5 nM.

As for `N#C/N=C(\NCCc1ccc(S(=O)(=O)c2ccccc2)cc1)Nc1ccncc1` [1-{2-[4-(benzenesulfonyl)phenyl]ethyl}-2-cyano-3-(pyridin-4-yl)guanidine], the IC50 amounted to 1 nM in test [1] and 5.3 nM in test [2] (Homo sapiens, A2780, 72 h). In test [2] (Homo sapiens, A2780, 72 h), `N#CN=C(NCc1ccc(S(=O)(=O)c2cccc3c2OCO3)cc1)Nc1ccncc1` [1-{[4-(2H-1,3-benzodioxole-4-sulfonyl)phenyl]methyl}-2-cyano-3-(pyridin-4-yl)guanidine] had an IC50 of 9.4 nM. Consider `N#CN=C(NCc1ccc(S(=O)(=O)c2ccc3c(c2)OCO3)cc1)Nc1ccncc1` [1-{[4-(2H-1,3-benzodioxole-5-sulfonyl)phenyl]methyl}-2-cyano-3-(pyridin-4-yl)guanidine], for which the concentration for half-maximal inhibition (IC50) in test [1] is 1.8 nM; in test [2] (Homo sapiens, A2780, 72 h) it was 3.3 nM. The corresponding values for `N#C/N=C(\NCc1ccc(S(=O)(=O)c2ccccc2)cc1)NCc1ccn2ccnc2c1` [2-cyano-1-(imidazo[1,2-a]pyridin-7-ylmethyl)-3-(4-(phenylsulfonyl)benzyl)guanidine] are 266 nM and 326 nM. `N#CN=C(NCc1ccc(S(=O)(=O)c2ccccc2OC(F)(F)F)cc1)Nc1ccncc1` [2-cyano-1-(pyridin-4-yl)-3-[(4-{[2-(trifluoromethoxy)benzene]sulfonyl}phenyl)methyl]guanidine]: the 50% inhibitory concentration (IC50) in test [1] amounted to 4 nM; in test [2] (72 hours), 0.6 nM. As for `CN(C)c1ncc(S(=O)(=O)c2ccc(CNC(=NC#N)Nc3ccncc3)cc2)cn1` [2-cyano-1-({4-[2-(dimethylamino)pyrimidine-5-sulfonyl]phenyl}methyl)-3-(pyridin-4-yl)guanidine], the IC50 in test [1] turned out to be 8.6 nM; in test [2] (Homo sapiens, A2780, 72 h) it was 7 nM.

With `N#CN=C(NCc1ccc(S(=O)(=O)c2ccc(N3CCOCC3)nc2)cc1)Nc1ccncc1` [2-cyano-1-({4-[6-(morpholin-4-yl)pyridine-3-sulfonyl]phenyl}methyl)-3-(pyridin-4-yl)guanidine], the 50% inhibitory concentration (IC50) in test [1] was found to be 1.9 nM; in test [2] (Homo sapiens, A2780, 72 h) it was 3.3 nM. The corresponding values for `Cc1cccc(S(=O)(=O)c2ccc(CNC(=NC#N)Nc3ccncc3)cc2)c1C` [2-cyano-1-({4-[(2,3-dimethylbenzene)sulfonyl]phenyl}methyl)-3-(pyridin-4-yl)guanidine] are 4 nM and 3.5 nM. In the case of `Cc1ccc(S(=O)(=O)c2ccc(CNC(=NC#N)Nc3ccncc3)cc2)c(C)c1` [2-cyano-1-({4-[(2,4-dimethylbenzene)sulfonyl]phenyl}methyl)-3-(pyridin-4-yl)guanidine], the half-inhibitory concentration (IC50) amounted to 2.4 nM in test [1] and 1.5 nM in test [2] (Homo sapiens, A2780, 72 h). In the case of `N#C/N=C(\NCc1ccc(S(=O)(=O)c2ccc(-c3ccccc3)cc2)cc1)Nc1ccncc1` [2-cyano-1-({4-[(4-phenylbenzene)sulfonyl]phenyl}methyl)-3-(p] [2-cyano-1-({4-[(4-phenylbenzene)sulfonyl]phenyl}methyl)-3-(pyridin-4-yl)guanidine], the half-maximal inhibitory concentration (IC50) in test [1] stood at 3.5 nM. `N#C/N=C(\NCc1ccc(S(=O)(=O)c2ccc(-c3ccccc3)cc2)cc1)Nc1ccncc1` [2-cyano-1-({4-[(4-phenylbenzene)sulfonyl]phenyl}methyl)-3-(pyridin-4-yl)guanidine] had an IC50 in test [2] (Homo sapiens, A2780, 72 h) of 6.2 nM. In test [2] (Homo sapiens, A2780, 72 h), `N#CN=C(NCc1ccc(S(=O)(=O)c2ccc(-n3cccn3)c(F)c2)cc1)Nc1ccncc1` [2-cyano-1-[(4-{[3-fluoro-4-(1H-pyrazol-1-yl)benzene]sulfonyl}phenyl)methyl]-3-(pyridin-4-yl)guanidine] had a 50% inhibitory concentration (IC50) of 9.4 nM.

(Values after US9676721B2, “Compounds and compositions for the inhibition of NAMPT” (FORMA TM, LLC, priority 2010, dated 2017).)
